These are literature values, as cited in publication PMC11165342 (Asian Journal of Pharmaceutical Sciences, 2024).

As for `CC(C(=O)O)c1ccc(-c2ccccc2)c(F)c1` (stereo not shown) [FB, Flurbiprofen], the pKa is reported as 3.5–4.5.
